Measurements as given in patent US10266484B2, “Biodegradable lipids for the delivery of active agents” (ALNYLAM PHARMACEUTICALS, INC., priority 2010, dated 2019).

How the values were obtained:
[1] = Concentration of metabolites of compounds 1-3 in the plasma of mice; format: in vivo, mice (C57BL)
Procedure: (§1) Male mice (C57BL, 20-30 g) were separated into four groups and administered (intravenously) either Compound 1, 2 or 3 of the present invention, or a Reference Lipid, as shown below in Table 20.
(§2) The mice were not fasted. Blood, liver and spleen samples were collected (two samples per time point per group) at 0.17, 8, 24, 72, 168, 336 and 672 hours post dose.
All measurements after 24 hours (including those taken at 72, 168, 336, and 672 hours post-administration) were below the level of quantification (BLQ).

[2] = Study to determine lipid profiles and tissue clearance in mice (overall conclusion); format: in vivo, mice (C57BL); details: liver, spleen and plasma (FIGS. 1, 3, 4; Tables 22, 24, 26)
Procedure: (§3) A study was conducted to determine the lipid profile and tissue clearance in mice for cationic lipids according to the present invention.
as §1, §2

[3] = Lipid concentration and pharmacokinetics in the liver of mice after intravenous administration; format: in vivo; details: mouse, male C57BL mice, lipid dose 0.3 mg/kg
Procedure: as §3, §1, §2

[4] = Lipid concentration and pharmacokinetics in the plasma of mice after intravenous administration; format: in vivo; details: mouse, male C57BL mice, lipid dose 0.3 mg/kg
Procedure: as §3, §1, §2

[5] = Concentration of metabolites of compounds 1-3 in the spleen of mice; format: in vivo, mice (C57BL)
Procedure: as §1, §2

[6] = Concentration of mono-acid and di-acid metabolites in the liver of mice; format: in vivo, mice (C57BL); details: 0.3 mg/kg intravenous
Procedure: as §1, §2
The concentration of these metabolites was measured in the liver. All measurements after 24 hours (including those taken at 72, 168, 336, and 672 hours post-administration) were below the level of quantification (BLQ).

[7] = Lipid concentration and pharmacokinetics in the spleen of mice after intravenous administration; format: in vivo; details: mouse, male C57BL mice, lipid dose 0.3 mg/kg; for MRT last: read-out: MRT0-t (mean residence time)
Procedure: as §3, §1, §2

[8] = read-out: MRT0-t (mean residence time)

Row | Concentration of di-acid metabolite in the plasma ([1]; 24 hr post dose) | Concentration of mono-acid metabolite in the plasma ([1]; 24 hr post dose) | AUC [3] [µg·h/mL] | Cmax [3] [ng/mL] | AUC [4] [µg·h/mL] | Cmax [4] [ng/mL] | Concentration of di-acid metabolite in the spleen ([5]; 24 hr post dose) | Concentration of di-acid metabolite in the spleen ([5]; 72 hr post dose) | Concentration of mono-acid metabolite in the spleen ([5]; 72 hr post dose) | Concentration of di-acid metabolite in the spleen ([5]; 168 hr post dose) | Concentration of mono-acid metabolite in the spleen ([5]; 168 hr post dose) | Concentration of mono-acid metabolite in the spleen ([5]; 336 hr post dose) | Concentration of di-acid metabolite in the spleen ([5]; 672 hr post dose) | Concentration of mono-acid metabolite in the spleen ([5]; 672 hr post dose) | Di-acid metabolite concentration ([6]; 24 hr post dose) | Mono-acid metabolite concentration ([6]; 24 hr post dose) | AUC [7] [µg·h/mL] | Cmax [7] [ng/mL] | MRT last [7] [h] | SMILES | Tissue clearance and activity compared to the Reference Lipid [2] | other results
1 | BLQ | BLQ | 0.436 | 118 | 116 | 28800 | BLQ | BLQ | BLQ | BLQ | BLQ | BLQ | BLQ | BLQ | BLQ | BLQ | 238 | 13600 | 11.1 | CCOC(=O)CCCC/C=C\CCCCCCCCC(CCCCCCCC/C=C\CCCCC(=O)OCC)OC(=O)CCCN(C)C [Compound 2] | dramatically improved tissue clearance and activity | Concentration of di-acid metabolite in the spleen ([5]; 336 hr post dose): BLQ
2 | – | – | 6950 | 22400 | 63.8 | 2110 | – | – | – | – | – | – | – | – | – | – | 3430 | 9150 | 230 | CCCCC/C=C\C/C=C\CCCCCCCCOCC(CN(C)C)OCCCCCCCC/C=C\C/C=C\CCCCC (centres unmarked) [Reference Lipid, reference compound] | – | MRT last [3, 8]: 221 h; MRT last [4, 8]: 201 h
3 | BLQ | BLQ | 4.59 | 1140 | 155 | 38800 | BLQ | BLQ | BLQ | BLQ | BLQ | BLQ | BLQ | BLQ | BLQ | BLQ | 42 | 7460 | 2.8 | CCCCCC/C=C\COC(=O)CCCCCCCC(CCCCCCCC(=O)OC/C=C\CCCCCC)OC(=O)CCCN(C)C [Compound 1, di((Z)-non-2-en-1-yl) 9-((4-(dimethylamino)butanoyl)oxy)heptadecanedioate] | dramatically improved tissue clearance and activity | Concentration of di-acid metabolite in the plasma ([1]; 8 hr post dose): BLQ; Concentration of mono-acid metabolite in the plasma ([1]; 8 hr post dose): BLQ; Concentration of di-acid metabolite in the spleen ([5]; 8 hr post dose): BLQ; Concentration of mono-acid metabolite in the spleen ([5]; 24 hr post dose): BLQ; Concentration of di-acid metabolite in the spleen ([5]; 336 hr post dose): BLQ
4 | – | BLQ | – | 208 | 122 | 30600 | – | – | BLQ | – | BLQ | BLQ | BLQ | BLQ | BLQ | BLQ | 18.7 | 4370 | 0.7 | COC(=O)CCCCCCC/C=C\CCCCCCCCC(CCCCCCCC/C=C\CCCCCCCC(=O)OC)OC(=O)CCCN(C)C [Compound 3] | dramatically improved tissue clearance and activity | Concentration of mono-acid metabolite in the plasma ([1]; 8 hr post dose): BLQ; Concentration of mono-acid metabolite in the spleen ([5]; 24 hr post dose): BLQ; Di-acid metabolite concentration ([6]; 8 hr post dose): BLQ; Mono-acid metabolite concentration ([6]; 8 hr post dose): BLQ
